Source: patent publication US20110105382A1, “CALMODULIN-BINDING PEPTIDES THAT REDUCE CELL PROLIFERATION IN CANCER AND SMOOTH MUSCLE PROLIFERATION DISEASES” (priority 2007, published 2011)
Where no end group is shown, it is not given here.

Tests used:
[1] = tested on: primary mouse aortic SMC; format: cell-based; settings: for proliferation of primary mouse aortic SMC (MTT), TAT-fused peptides: 100 μM, MTT after 2 days
Method: (§1) Cell culture conditions The isolation and culture of primary mouse aortic VSMC have was performed according to methods previously described (Afroze T, Yang L L, Wang C, Gros R, Kalair W, Hogue A N, Mungrue I N, Zhu Z, Husain M. Calcineurin-independent regulation of plasma membrane Ca2+ ATPase-4 in the vascular smooth muscle cell cycle. Am J Physiol Cell Physiol. July 2003; 285(1):C88-95). VSMCs were grown in DMEM (GIBCO/BRL, Gaithersburg, Md.) supplemented with 10% FBS (Hyclone, Logan, Utah), 50 ng/mL platelet-derived growth factor (PDGF, Sigma) and 1% penicillin-streptomycin (GIBCO/BRL). For serum starvation, cells were grown to 60% to 70% confluence, washed twice with PBS, and cultured in starvation medium (0.25% FBS-supplemented DMEM) for 72 hours to achieve Go arrest. Progression to G1/S was brought about by stimulation with 10% FBS and 50 ng/mL PDGF for 24 hours. Cells and reagents for primary human aortic VSMC culture were purchased from Cascade Biologics. Human VSMC(C-007-5C) were grown in Medium 231 with Smooth Muscle Growth Supplement (SMGS) S-007-25 and 1% penicillin-streptomycin (GIBCO/BRL). Cyclin E1/E2 double knockout mouse embryonic fibroblasts (MEF) were kindly provided by Dr. P. Sicinski (Harvard Medical School), and maintained in DMEM with 10% FBS (Hyclone) and 1% penicillin-streptomycin (GIBCO/BRL). Go arrest of MEF was achieved by starvation for 48 h in medium lacking FBS. Mouse embryonic fibroblasts (MEF) were maintained for normal culture in 10% FBS-supplemented DMEM. For the starvation of MEF, cells were cultured in starvation medium without FBS for 48 hours to achieve Go arrest. HeLa (human cervical cancer cell), Saos-2 (human osteosarcoma cell) and A549 (human lung cancer cell) were cultured in 10% FBS-supplemented DMEM.
(§2) MTT colorimetric survival assay. Active mitochondria of living cells can cleave MTT to produce formazan, the amount of which is directly proportional to the number of living cells. Cell survival was assessed (Denizot, 1986). Cells in 96-well plate were washed two times with PBS followed by 4 hr of incubation at 37° C. with 1 mg/ml of MTT (in phenol red free DMEM supplemented with 2 mM of L-glutamine & 1 mM of sodium pyruvate) in a reaction volume of 100 μl. After removing MTT solution, DMSO was added to dissolve formazan crystals. Plate was shaken for 5 min at 55° C. for complete dissolve. Dye absorbance in viable cells was measured at 570 nm with 630 nm as a reference wavelength. All experiments were repeated at least 3 times, and each experimental condition was repeated in at least quadruplicate wells in each experiment.
Nucleofection. For peptides delivery via Nucleofector technology, 1×10^6 cells were harvested, resuspended in 100 μl of Nucleofector solution (for VSMC: Cat. No. VPI-1004; for MEF: Cat. No.: VPD-1005, both provided by Amaxa GmBH, Köln, Germany) and mixed with 100 nmole (in 10 μl) of each peptide. The cell solution was transferred into a kit-provided cuvette and positioned into a Nucleofector device. Subsequently, the transfection was performed with a single pulse using the preprogrammed nucleofection program (A-33 for VSMC; T-20 for MEF) according to the manufacturer's recommendation. Following nucleofection, the cells were transferred into 96-well plate (2K or 5K cells per well for MTT assay) or T25 culture flasks (for FACS analysis) containing pre-warmed stem cell medium using kit-provided plastic pipettes to prevent cell damage and the cells were cultured at 37° C. in 5% CO2.

[2] = tested on: primary human aortic VSMC; assay: 3H-thymidine incorporation assay, human aortic VSMC; format: cell-based; settings: 10 and 100 μM for 1.0 h, 72 h after treatment
Method: Cell culture conditions The isolation and culture of primary mouse aortic VSMC have was performed according to methods previously described (Afroze T, Yang L L, Wang C, Gros R, Kalair W, Hogue A N, Mungrue I N, Zhu Z, Husain M. Calcineurin-independent regulation of plasma membrane Ca2+ ATPase-4 in the vascular smooth muscle cell cycle. Am J Physiol Cell Physiol. July 2003; 285(1):C88-95). VSMCs were grown in DMEM (GIBCO/BRL, Gaithersburg, Md.) supplemented with 10% FBS (Hyclone, Logan, Utah), 50 ng/mL platelet-derived growth factor (PDGF, Sigma) and 1% penicillin-streptomycin (GIBCO/BRL). For serum starvation, cells were grown to 60% to 70% confluence, washed twice with PBS, and cultured in starvation medium (0.25% FBS-supplemented DMEM) for 72 hours to achieve Go arrest. Progression to G1/S was brought about by stimulation with 10% FBS and 50 ng/mL PDGF for 24 hours. Cells and reagents for primary human aortic VSMC culture were purchased from Cascade Biologics. […]
^3H-thymidine incorporation proliferation assay. […] Cells were grown at 37° C. and analyzed at 24, 48 and 72 h after ^3H-thymidine exposure. […] Solubilized contents of wells were removed and added to 2.5 ml of scintillation fluid (ReadySafe™ Cocktail, Beckman Coulter, Product No. 141349). Radioactivity was measured in a scintillation counter (Beckman Coulter, LS 6500).

[3] = tested on: A549 (human lung cancer cell); assay: MTT proliferation assay, A549; format: cell-based; settings: 100 μM, MTT after 2 days
Method: as §1, §2

[4] = tested on: Saos-2 (human osteosarcoma); assay: MTT proliferation assay, Saos-2; format: cell-based; settings: 100 μM, MTT after 2 days
Method: as §1, §2

[5] = tested on: HeLa (human cervical cancer cell); assay: MTT proliferation assay, HeLa; format: cell-based; settings: 100 μM, MTT after 2 days
Method: as §1, §2

[6] = tested on: mouse carotid artery injury model; assay: Mouse carotid artery injury model (wire denudation); format: in vivo; settings: truncated peptides, arteries harvested 14 days following injury
Method: Injury of mouse carotid arteries (wire denudation) and local administration of CBS peptide. The mice (8-12 weeks, 20-25 g) were anesthetized with i.p. Ketamine (100 mg/kg, MTC Pharmaceuticals, Cambridge, ON, Canada) and Xylazine (10 mg/kg, Bayer Inc., Etobicoke, ON, Canada). Surgical procedures were performed under a dissecting microscope (MZ6 Leica, Heerbrugg, Switzerland). The left carotid artery was exposed via a midline incision on the ventral side of the neck. The bifurcation of the carotid artery was located and two ligatures were placed around the external carotid artery. This vessel was then tied off with the distal ligature. […] An incision hole is made between the two ligatures of external carotid artery, through which the denudation device is introduced. This device consists of a curved flexible copper wire (0.3 mm diameter) which is passed down to the common carotid artery, and under rotation, passed along this segment four times. The wire was then removed, and the external carotid artery was tied off proximal to the incision hole with the proximal ligature. […]
Tissue processing and analysis. […] Images were analyzed by planimetry using Image J software. […] Medial mass was calculated subtracting the luminal from whole area. […]

[7] = tested on: primary mouse aortic SMC; assay: Lactate dehydrogenase (LDH) cytotoxicity assay; format: cell-based; settings: nucleofection, 1 mM, asynchronized cells
Method: Lactate dehydrogenase (LDH) assay. To measure the level of cytotoxicity, LDH based in vitro toxicology assay kit (Sigma, Cat. No.: TOX-7) was used (Legrand, 1992). After nucleofection of peptides, 10^6 cells were grown on 24-well plate in the presence of phenol red free DMEM. 3 days later, 500 μl of cell culture media was collected from each well for assay followed by centrifugation (12,000 rpm, 30 min, at 4° C.) to remove any cell debris completely. Subsequent procedures for enzymatic assay were performed according to manufacture's protocol.
Nucleofection. For peptides delivery via Nucleofector technology, 1×10^6 cells were harvested, resuspended in 100 μl of Nucleofector solution (for VSMC: Cat. No. VPI-1004; for MEF: Cat. No.: VPD-1005, both provided by Amaxa GmBH, Köln, Germany) and mixed with 100 nmole (in 10 μl) of each peptide. The cell solution was transferred into a kit-provided cuvette and positioned into a Nucleofector device. Subsequently, the transfection was performed with a single pulse using the preprogrammed nucleofection program (A-33 for VSMC; T-20 for MEF) according to the manufacturer's recommendation. […]

[8] = biological target: T1, cyclin E/CDK2 (Mus musculus, UniProt P0DP26); assay: Histone H1 in vitro kinase assay; format: biochemical; settings: G1/S-synchronized mouse VSMC, each peptide 100 μM
T1 construct: endogenous in cells; host or cells: primary mouse aortic VSMC (G1/S-synchronized), immunoprecipitated complexes
Method: Immunoprecipitation and kinase assays. 5×10^6 SMC were harvested and re-suspended with 2 ml of lysis buffer (50 mM Tris (pH 7.4), 250 mM NaCl, 5 mM EDTA, 0.1% NP-40, 0.5 mM DTT, 0.1 mM Na3VO4, 5 μg/ml leupeptin, 5 μg/ml aprotinin, 2 mM PMSF, and 10% glycerol). After homogenization, cell lysates were clarified by centrifugation at 12×10^3 rpm, 4° C. for 30 min, and the supernatant was collected. An aliquot was taken for protein concentration determination using the BCA protein assay kit (Sigma). Cell extracts (200 μg) were then incubated for 2 hr at 4° C. with saturating concentrations of polyclonal antibodies (Abs). […]
For the in vitro kinase assays, 20 μl of kinase reaction mixture (20 mM Tris (pH 7.4), 5 mM MgCl2, 2.5 mM MnCl2, 1 mM DTT, 10 μg of C-terminal of human Rb protein (Upstate Biotech.) or 4 μg of histone-H1 (Upstate Biotech.) as substrates, 13 μM ATP, and 2.4 μCi [γ-^32P]ATP (Amersham Pharmacia)) was added to CDK2-, cyclin E-, or cyclin A-immunoprecipitated (IPd) complexes after removing the washing buffer from GammaBind™ G Sepharose resin. Based on the total calcium content of kinase reaction mixtures (as determined by inductively coupled plasma atomic emission spectrometry), amounts of EGTA required to yield final concentrations of free Ca^2+ ion (0, 100 or 500 nM) were calculated by WinMaxC (http://www.stanford.edu/˜cpatton/winmaxc2.html). […]

Sequence	proliferation of A549 cells (MTT) [3]	proliferation of Saos-2 cells (MTT) [4]	proliferation of HeLa cells (MTT) [5]	proliferation of primary mouse aortic SMC (MTT), TAT-fused peptides [1]	further results
FAFGRQVNKARSEKALGVSDRT [scrambled, reference compound]					proliferation of primary mouse aortic SMC (MTT) ([1]; peptide delivered via nucleofection): no effect
RRRQRRKKRGVDIDQARLKMLGQTRPHDDDDC [TAT-NC, reference compound]					3H-thymidine incorporation (S-phase entry), human aortic VSMC [2]: not
RRRQRRKKRG [TAT domain, reference compound]	no anti-proliferative effect	no anti-proliferative effect	no anti-proliferative effect	no anti-proliferative effect	
RRRQRRKKRGAEFSARSRKRKANVTVFL (N-terminal TAT peptide; listed as Homo sapiens) [TAT-SEQ ID NO:2 (#3-20)]	most powerfully and efficiently	most powerfully and efficiently	most powerfully and efficiently	most powerfully and efficiently	anti-proliferative effect on the site of injury (media mass, I/M ratio) [6]: anti-proliferative effect
RRRQRRKKRGEFSARSRKRKANVTVF (N-terminal TAT peptide; listed as Homo sapiens) [TAT-SEQ ID NO:2 (#4-19)]	started to lose its proliferative function	started to lose its proliferative function	started to lose its proliferative function	started to lose its proliferative function	
RRRQRRKKRGVTVFL (N-terminal TAT cell-penetrating peptide; listed as Homo sapiens) [TAT-SEQ ID NO:2(#16-20)]					anti-proliferative effect on the site of injury (media mass, I/M ratio) [6]: anti-proliferative effect
GGAEFSARSRKRKANVTVFLQD [CBS]					cell death (LDH assay) [7]: did not cause any increase in cell death; maximum level of inhibition of VSMC proliferation [1]: 50%; inhibition of in vitro cyclin E/CDK2 activity [8]: 40%
